Assay in all cases: microbial growth inhibition plus red cell haemolysis – Idler compounds, first plate, PMBN-permeabilized strains, profiling panel (AID 2061108)
What all share (parameters): haemolysis: dose or concentration left out as unconfirmed

The test system of experiment [1] is A. baumannii ATCC 17978 + PMBN growth inhibition, 100 uM. To be noted: A. baumannii plus PMBN growth inhibition, 100 µM; stronger effect = higher value.
Experiment [2] concerns A. baumannii ATCC 17978 growth inhibition, 100 uM. To be noted: S. aureus ATCC 9144 growth inhibition; measured here: A. baumannii ATCC 17978; at 100 µM; stronger effect = higher value.
The test system of experiment [3] is C. albicans NCPF 3281 growth inhibition, 100 uM. The conditions noted are these: S. aureus ATCC 9144 growth inhibition; measured here: C. albicans NCPF 3281; at 100 µM; stronger effect = higher value.
For experiment [4], the system named is E. coli NCTC 12923 + PMBN growth inhibition, 100 uM. To be noted: S. aureus ATCC 9144 growth inhibition; measured here: E. coli plus PMBN; at 100 µM; stronger effect = higher value.
Experiment [5] concerns E. coli NCTC 12923 growth inhibition, 100 uM. The conditions noted are these: E. coli NCTC 12923 growth inhibition, 100 µM; stronger effect = higher value.
Experiment [6] deals with M. abscessus growth inhibition, 10 uM. To be noted: S. aureus ATCC 9144 growth inhibition; measured here: M. abscessus; at 10 µM.
The subject of experiment [7] is M. avium growth inhibition, 10 uM. To be noted: M. avium growth inhibition, 10 µM.
In experiment [8] the test system is S. aureus ATCC 9144 growth inhibition, 100 uM. To be noted: S. aureus ATCC 9144 growth inhibition; at 100 µM; stronger effect = higher value.
Experiment [9] relates to red blood cell haemolysis. To be noted: stronger effect = higher value; dose or concentration not given here.

SMILES strings stand for the structures. Active and inactive are the calls of the source. No rule for the calls is given here.

For 20 compounds, inhibition and haemolysis results are on record in PubChem BioAssay AID2061108 (Research group of Professor Matthew Todd, School of …, 2025).

As for `CC(C)NC(=O)Nc1cccc(C(=O)NC(C)c2cccc(Br)c2)c1` (stereo not given), the inhibition in experiment [1] was 34.3%; in [2], 4.29%; in [3], 26.3%; in experiment [4] it was 28.6%; in experiment [5], -0.541%; in experiment [6], -1.08%. Further, the inhibition in experiment [7] was -5.32%; in [8], 3.67% (inactive). Further, the haemolysis in experiment [9] is -0.0024%.
As for `Nc1ncnc2cc(-c3cccc(S(=O)(=O)NC(=O)C(N)Cc4ccccc4)c3)sc12` (stereo not given), the inhibition was 3.19% in experiment [1]; 1.55% in experiment [2]; -49.9% in experiment [3]; -18.8% in experiment [4]; -49.3% in experiment [5]; -0.63% in experiment [6]. Also, the figures for the inhibition in experiment [7] and in [8] were 11.7% and -16.5% (inactive), respectively. Also, the haemolysis in [9] worked out at 0.0594%.
As to `NC(=O)C1CCN(c2nc(OCc3ccc(F)nc3)nc(N3CCCOCC3)n2)CC1`, the inhibition in experiment [1] is 9.86%; in experiment [2] it was -0.843%; in experiment [3], -78.3%; in experiment [4], -2.07%; in experiment [5] it was -2.97%; in experiment [6] it was -0.107%. The inhibition was 0.922% in [7] and 18.4% (inactive) in [8]. The haemolysis in experiment [9] amounted to 1.34%.
Take `COc1cccc(C(=O)Nc2nc3cc(Cl)c(OC)cc3s2)c1`: the inhibition was 19.1% in experiment [1]; -4.34% in [2]; -74.4% in experiment [3]; -13.2% in experiment [4]; -30.8% in experiment [5]; -0.266% in experiment [6]. The values for the inhibition in [7] and in experiment [8] were 0.396% and 2.28% (inactive), respectively. Besides, the haemolysis in experiment [9] came out at 4.42%.
With `Nc1ncc(/C=N/NC(=O)c2ccncc2)cn1`, the inhibition in [1] is 11.3%; in [2], -1.43%; in experiment [3], 3.92%; in experiment [4], -2.1%; in experiment [5], -0.946%; in experiment [6], -0.71%. Besides, the inhibition in [7] is 0.0378%; in experiment [8], 19.2% (inactive). For the same compound, the haemolysis in experiment [9] was -0.164%.
For the compound `COc1ccc2c(c1)nc(-c1ccc[nH]1)c1[nH]ccc12`, the inhibition is 101% in experiment [1]; 34.2% in experiment [2]; 101% in [3]; 100% in experiment [4]; 43.8% in experiment [5]; 0.154% in [6]. Moreover, the inhibition in experiment [7] is 1.82%; in [8], 102%. For the same compound, the haemolysis in experiment [9] was 0.0477%.
`COC(COc1cncc2nnc(-c3ccc(OC(F)F)cc3)n12)c1ccccc1` (stereo not given): the inhibition in experiment [1] was -15.5%; in experiment [2], -16.4%; in [3] it was -17.3%; in experiment [4], -28.1%; in experiment [5] it was -38.8%; in experiment [6], -0.536%. Besides, the results for the inhibition in [7] and in experiment [8] were -0.713% and -22.8% (inactive), respectively. The haemolysis in experiment [9] is -0.0885%.
Regarding `O=C(N1CCCCC1)N1CCCCC1Cc1ccccc1` (stereo not given), the inhibition in experiment [1] is 16.8%; in experiment [2] it was -2.26%; in experiment [3], -79.6%; in [4] it was 18.1%; in experiment [5], -3.65%; in experiment [6], -0.54%. Besides, the inhibition is 0.89% in experiment [7] and 7% (inactive) in [8]. In experiment [9], the haemolysis was -0.191%.
As for `CC1(C)C2CCC1(C)C(OCC(O)CNC1CCCCC1)C2` (stereo not given), the inhibition in [1] was 79.1%; in experiment [2], 29.4%; in experiment [3] it was 100%; in experiment [4], 100%; in [5], 19.9%; in [6], -1.25%. Further, the inhibition in experiment [7] is -0.797%; in experiment [8], 17%. Further, the haemolysis in experiment [9] was found to be 0.00104%.
As for `O=S(=O)(Nc1ccc(Oc2ccccc2)cc1)c1ccc(-c2nn[nH]n2)cc1`, the inhibition is 34.1% in [1]; -18.3% in [2]; -30.5% in experiment [3]; 21.7% in experiment [4]; 0.135% in [5]; -0.359% in experiment [6]. Besides, the values for the inhibition in experiment [7] and in [8] were 0.208% and 70% (inactive), respectively. Moreover, the haemolysis in [9] was found to be 1.69%.
Take `O=C(NCCn1ccc2ccccc21)Nc1c[nH]c2ccccc12`: the inhibition was 55% in experiment [1]; 1.2% in experiment [2]; -13.8% in [3]; 8.41% in experiment [4]; -5.81% in experiment [5]; 0.723% in experiment [6]. The inhibition was 1.09% in experiment [7] and 1.75% (inactive) in [8]. In addition, the haemolysis in experiment [9] was 0.223%.
On to `O=c1[nH]c(=O)c2cc(S(=O)(=O)Nc3cc(F)c(NCCN4CCOCC4)c(F)c3)ccc2[nH]1`, for which the inhibition is 12% in experiment [1]; -1.9% in experiment [2]; -21.1% in experiment [3]; 0.988% in [4]; -4.32% in experiment [5]; -0.977% in [6]. The inhibition in [7] is -0.106%; in experiment [8] it was 17.7% (inactive). For the same compound, in [9], the haemolysis is -0.0292%.
As to `O=C(Nc1nnc2ccccn12)c1ccc2cccc(Cl)c2n1`, the inhibition in experiment [1] was -14.2%; in experiment [2], -14.5%; in [3], 25.9%; in experiment [4], -43.8%; in [5], -51.6%; in experiment [6], -0.577%. The inhibition in [7] was -0.879%; in experiment [8], -41.5% (inactive). Besides, the haemolysis in [9] came out at 2.79%.
`CS(=O)(=O)CCCNC[C@@H](O)c1ccccc1`: the inhibition in experiment [1] was 20.9%; in [2], -0.12%; in [3] it was -65.9%; in [4], 1.22%; in [5] it was -6.89%; in experiment [6], -0.256%. Moreover, the figures for the inhibition in [7] and in experiment [8] were 0.187% and 14.7% (inactive), respectively. The haemolysis in experiment [9] came out at 0.325%.
As for `O=C(N/N=C/c1cnc(C(F)(F)F)nc1)c1ccncc1`, the inhibition in experiment [1] is 21.6%; in experiment [2], 10.4%; in [3], 17%; in experiment [4], 11.2%; in experiment [5], -2.16%; in [6], 0.125%. Further, the inhibition in [7] was 1.52%; in experiment [8], 16.7% (inactive). Moreover, the haemolysis in [9] amounted to 0.15%.
For `CC(N)C(=O)NS(=O)(=O)c1cccc(-c2cc3ncnc(N)c3s2)c1` (stereo not given), the inhibition in experiment [1] was -25.6%; in experiment [2] it was -14.5%; in [3], -29.6%; in experiment [4] it was -31.8%; in [5], -32.4%; in experiment [6], -0.285%. The inhibition in [7] was 45.2%; in experiment [8], -35.4% (inactive). The haemolysis in experiment [9] worked out at 0.129%.
As for `Cc1ncsc1CCCN(C)c1cnc(S(=O)(=O)F)c(Br)c1`, the inhibition in experiment [1] is 21.9%; in experiment [2], -2.86%; in experiment [3] it was -94.3%; in experiment [4] it was 0.37%; in experiment [5], 1.49%; in experiment [6], -0.937%. Moreover, the inhibition in experiment [7] was 0.0507%; in experiment [8], 16.7% (inactive). Moreover, the haemolysis in experiment [9] came out at 0.616%.
Turning to `C=CC(=O)N1CCC[C@H](CC(=O)O)C1`, the inhibition in [1] is 22.4%; in [2], 0%; in experiment [3], -64.4%; in experiment [4] it was 5.85%; in experiment [5], -6.76%; in experiment [6], -0.00311%. The inhibition is 0.225% in experiment [7] and 14.4% (inactive) in [8]. Besides, in [9], the haemolysis is -0.0261%.
With `Cc1ccc(C)c(N2CCN(C(=O)C3CCN(c4ncnc5c4sc4ncccc45)CC3)CC2)c1`, the inhibition in [1] is 5.07%; in experiment [2] it was -3.57%; in [3], 24.6%; in experiment [4], 0.988%; in experiment [5], 9.19%; in experiment [6], -1.18%. Besides, the inhibition is 9.54% in [7] and 6.17% (inactive) in experiment [8]. Moreover, the haemolysis in experiment [9] was 0.267%.
In the case of `N#Cc1c(Cl)nc2ccccc2c1C(F)(F)F`, the inhibition in experiment [1] is 31.1%; in experiment [2], 3.86%; in experiment [3], -47.1%; in experiment [4] it was -1.22%; in experiment [5], -10%; in [6], 0.0452%. Further, the inhibition in [7] was 0.667%; in experiment [8] it was 10% (inactive). Moreover, the haemolysis in experiment [9] was 0.129%.

For orientation: inhibition means the change of the read-out against control, counted positive when it falls.
